Key:
[1] = target: Carbonic anhydrase 2 (Homo sapiens, UniProt P00918); test: Inhibition of recombinant human carbonic anhydrase 2 after 15 mins by stopped flow CO2 hydration assay
[2] = target: Carbonic anhydrase 9 (Homo sapiens, UniProt Q16790); test: Inhibition of recombinant human carbonic anhydrase 9 after 15 mins by stopped flow CO2 hydration assay
[3] = target: Carbonic anhydrase 1 (Homo sapiens, UniProt P00915); test: Inhibition of recombinant human carbonic anhydrase 1 after 15 mins by stopped flow CO2 hydration assay
Chain of Carbonic anhydrase 1 (P00915 whole entry): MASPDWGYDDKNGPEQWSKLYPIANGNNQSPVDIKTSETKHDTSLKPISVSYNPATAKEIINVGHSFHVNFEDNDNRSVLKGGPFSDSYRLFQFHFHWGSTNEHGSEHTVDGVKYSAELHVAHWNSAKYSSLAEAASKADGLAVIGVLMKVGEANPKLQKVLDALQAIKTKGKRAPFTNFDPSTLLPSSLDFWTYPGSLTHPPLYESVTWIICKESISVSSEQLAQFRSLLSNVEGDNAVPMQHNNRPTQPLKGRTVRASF

[4] = target: Carbonic anhydrase 12 (Homo sapiens, UniProt O43570); test: Inhibition of recombinant human carbonic anhydrase 12 after 15 mins by stopped flow CO2 hydration assay
Chain of Carbonic anhydrase 12 (O43570 whole entry): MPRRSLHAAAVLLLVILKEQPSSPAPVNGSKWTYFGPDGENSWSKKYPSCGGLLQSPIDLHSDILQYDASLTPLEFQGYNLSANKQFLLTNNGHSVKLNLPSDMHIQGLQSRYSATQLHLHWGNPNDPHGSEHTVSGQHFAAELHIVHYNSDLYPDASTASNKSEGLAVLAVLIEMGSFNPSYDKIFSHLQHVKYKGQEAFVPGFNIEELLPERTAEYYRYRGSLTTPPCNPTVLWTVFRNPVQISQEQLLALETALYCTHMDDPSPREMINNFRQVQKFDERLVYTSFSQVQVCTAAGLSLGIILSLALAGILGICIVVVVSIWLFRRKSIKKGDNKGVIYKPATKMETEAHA

Row | Ki [1] [nM] | Ki [2] [nM] | Ki [3] [nM] | Ki [4] [nM] | SMILES
1 | > 10000 | 171 | – | – | CCCN(CCC)S(=O)(=O)c1ccc(C(=O)Nc2ccccc2)cc1
2 | > 10000 | 228 | – | – | CCCN(CCC)S(=O)(=O)c1ccc(C(=O)Nc2ccccn2)cc1
3 | > 10000 | 198 | – | – | CCCN(CCC)S(=O)(=O)c1ccc(C(=O)Nc2cccc(Cl)c2)cc1
4 | > 10000 | 243 | – | – | CCCN(CCC)S(=O)(=O)c1ccc(C(=O)Nc2ccc(Cl)cc2)cc1
5 | > 10000 | 223 | – | – | CCCN(CCC)S(=O)(=O)c1ccc(C(=O)Nc2ccccc2N)cc1

Second part, the compound before the results:

Row | SMILES | Ki [1] [nM] | Ki [2] [nM] | Ki [3] [nM] | Ki [4] [nM]
6 | CCCN(CCC)S(=O)(=O)c1ccc(C(=O)NC)cc1 | > 10000 | 165 | – | –
7 | CCCN(CCC)S(=O)(=O)c1ccc(C(=O)NC2CCCCC2)cc1 | > 10000 | 234 | – | –
8 | CCCN(CCC)S(=O)(=O)c1ccc(C(=O)NC2CCCCC2C)cc1 (configuration not stated) | > 10000 | 260 | – | –
9 | CCCN(CCC)S(=O)(=O)c1ccc(C(=O)NCCN2CCOCC2)cc1 | > 10000 | 251 | – | –
10 | CCCN(CCC)S(=O)(=O)c1ccc(C(=O)Nc2nncs2)cc1 | > 10000 | 216 | – | –
11 | CCCN(CCC)S(=O)(=O)c1ccc(C(=O)Nc2cccc([N+](=O)[O-])c2)cc1 | > 10000 | 265 | – | –
12 | CCCN(CCC)S(=O)(=O)c1ccc(C(=O)Nc2ccccc2[N+](=O)[O-])cc1 | > 10000 | – | – | –
13 | CCCN(CCC)S(=O)(=O)c1ccc(C(=O)O)cc1 [PROBENECID] | 431 | 360 | > 10000 | 1240

Reference: ChEMBL document CHEMBL3352763, “Selective inhibition of human carbonic anhydrases by novel amide derivatives of probenecid: synthesis, biological evaluation and molecular modelling studies” (Bioorg Med Chem, 2014)
